Assays:
Assay in all cases: Eurofins kinase panel
Assay type in all cases: biochemical
Settings in all cases: read-out: Inhibition rate (%)
ACTR2(h) = molecular target: T1, ACTR2(h) (Homo sapiens, UniProt P27037)
T1 construct: purchased Eurofins (KinaseProfiler)

CLK4(h) = molecular target: T2, CLK4(h) (Homo sapiens, UniProt Q9HAZ1)
T2 construct: purchased Eurofins (KinaseProfiler)

CaMKIδ(h) = molecular target: T3, CaMKIδ(h) (Homo sapiens, UniProt Q8IU85)
T3 construct: purchased Eurofins (KinaseProfiler)

DCAMKL3(h) = molecular target: T4, DCAMKL3(h) (Homo sapiens, UniProt Q9C098)
T4 construct: purchased Eurofins (KinaseProfiler)
T4 sequence (Q9C098 1-648): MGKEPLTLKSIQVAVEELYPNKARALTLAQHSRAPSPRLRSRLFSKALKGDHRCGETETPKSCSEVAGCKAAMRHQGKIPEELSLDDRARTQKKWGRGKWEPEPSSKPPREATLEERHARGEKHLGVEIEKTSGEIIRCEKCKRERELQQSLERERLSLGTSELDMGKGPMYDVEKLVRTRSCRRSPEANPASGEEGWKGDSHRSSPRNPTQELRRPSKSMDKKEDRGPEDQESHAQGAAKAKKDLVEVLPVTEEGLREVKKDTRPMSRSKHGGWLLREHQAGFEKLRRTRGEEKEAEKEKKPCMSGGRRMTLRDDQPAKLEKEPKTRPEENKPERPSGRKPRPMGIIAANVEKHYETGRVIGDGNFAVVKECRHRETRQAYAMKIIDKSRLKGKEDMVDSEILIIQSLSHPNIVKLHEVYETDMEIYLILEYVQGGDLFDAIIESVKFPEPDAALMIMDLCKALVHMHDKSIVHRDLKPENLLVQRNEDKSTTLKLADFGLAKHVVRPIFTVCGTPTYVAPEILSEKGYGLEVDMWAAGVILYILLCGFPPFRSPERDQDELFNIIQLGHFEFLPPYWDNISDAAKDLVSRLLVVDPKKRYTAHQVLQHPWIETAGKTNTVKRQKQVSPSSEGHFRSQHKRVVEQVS

EGFR(h) = molecular target: T5, EGFR(h) (Homo sapiens, UniProt P00533)
T5 construct: purchased Eurofins (KinaseProfiler)
T5 sequence (P00533 25-1210): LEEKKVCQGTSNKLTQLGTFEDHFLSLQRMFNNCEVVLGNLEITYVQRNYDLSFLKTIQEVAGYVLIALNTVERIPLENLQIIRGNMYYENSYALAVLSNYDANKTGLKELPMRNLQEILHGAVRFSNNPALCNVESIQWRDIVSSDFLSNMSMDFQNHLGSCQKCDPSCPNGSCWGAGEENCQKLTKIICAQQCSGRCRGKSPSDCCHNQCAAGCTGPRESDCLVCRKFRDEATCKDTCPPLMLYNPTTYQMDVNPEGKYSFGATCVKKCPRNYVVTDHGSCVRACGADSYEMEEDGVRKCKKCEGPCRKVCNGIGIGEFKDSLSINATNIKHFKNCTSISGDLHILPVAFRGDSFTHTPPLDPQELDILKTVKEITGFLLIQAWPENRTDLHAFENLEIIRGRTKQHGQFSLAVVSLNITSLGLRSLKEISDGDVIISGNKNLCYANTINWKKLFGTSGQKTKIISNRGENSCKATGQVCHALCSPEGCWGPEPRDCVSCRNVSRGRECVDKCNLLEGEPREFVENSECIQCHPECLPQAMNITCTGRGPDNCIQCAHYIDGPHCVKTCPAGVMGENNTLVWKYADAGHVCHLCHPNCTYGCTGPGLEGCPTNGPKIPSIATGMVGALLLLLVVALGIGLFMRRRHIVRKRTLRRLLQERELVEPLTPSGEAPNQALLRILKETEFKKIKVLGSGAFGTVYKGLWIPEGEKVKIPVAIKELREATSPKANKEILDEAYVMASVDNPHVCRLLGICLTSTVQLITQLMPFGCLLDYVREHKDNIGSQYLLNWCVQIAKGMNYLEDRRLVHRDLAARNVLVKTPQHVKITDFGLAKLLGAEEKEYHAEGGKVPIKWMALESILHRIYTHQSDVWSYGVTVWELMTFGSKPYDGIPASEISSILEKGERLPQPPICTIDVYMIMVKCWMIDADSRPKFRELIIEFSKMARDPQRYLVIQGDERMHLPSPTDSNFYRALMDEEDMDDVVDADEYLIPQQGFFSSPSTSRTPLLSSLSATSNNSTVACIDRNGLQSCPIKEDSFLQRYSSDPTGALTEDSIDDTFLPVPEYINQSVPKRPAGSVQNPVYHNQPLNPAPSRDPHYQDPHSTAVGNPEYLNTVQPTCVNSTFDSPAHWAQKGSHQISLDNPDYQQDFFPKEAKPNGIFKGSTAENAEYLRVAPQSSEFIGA

JAK1(h) = molecular target: T6, JAK1(h) (Homo sapiens, UniProt P23458)
T6 construct: purchased Eurofins (KinaseProfiler)
T6 sequence (P23458 whole entry): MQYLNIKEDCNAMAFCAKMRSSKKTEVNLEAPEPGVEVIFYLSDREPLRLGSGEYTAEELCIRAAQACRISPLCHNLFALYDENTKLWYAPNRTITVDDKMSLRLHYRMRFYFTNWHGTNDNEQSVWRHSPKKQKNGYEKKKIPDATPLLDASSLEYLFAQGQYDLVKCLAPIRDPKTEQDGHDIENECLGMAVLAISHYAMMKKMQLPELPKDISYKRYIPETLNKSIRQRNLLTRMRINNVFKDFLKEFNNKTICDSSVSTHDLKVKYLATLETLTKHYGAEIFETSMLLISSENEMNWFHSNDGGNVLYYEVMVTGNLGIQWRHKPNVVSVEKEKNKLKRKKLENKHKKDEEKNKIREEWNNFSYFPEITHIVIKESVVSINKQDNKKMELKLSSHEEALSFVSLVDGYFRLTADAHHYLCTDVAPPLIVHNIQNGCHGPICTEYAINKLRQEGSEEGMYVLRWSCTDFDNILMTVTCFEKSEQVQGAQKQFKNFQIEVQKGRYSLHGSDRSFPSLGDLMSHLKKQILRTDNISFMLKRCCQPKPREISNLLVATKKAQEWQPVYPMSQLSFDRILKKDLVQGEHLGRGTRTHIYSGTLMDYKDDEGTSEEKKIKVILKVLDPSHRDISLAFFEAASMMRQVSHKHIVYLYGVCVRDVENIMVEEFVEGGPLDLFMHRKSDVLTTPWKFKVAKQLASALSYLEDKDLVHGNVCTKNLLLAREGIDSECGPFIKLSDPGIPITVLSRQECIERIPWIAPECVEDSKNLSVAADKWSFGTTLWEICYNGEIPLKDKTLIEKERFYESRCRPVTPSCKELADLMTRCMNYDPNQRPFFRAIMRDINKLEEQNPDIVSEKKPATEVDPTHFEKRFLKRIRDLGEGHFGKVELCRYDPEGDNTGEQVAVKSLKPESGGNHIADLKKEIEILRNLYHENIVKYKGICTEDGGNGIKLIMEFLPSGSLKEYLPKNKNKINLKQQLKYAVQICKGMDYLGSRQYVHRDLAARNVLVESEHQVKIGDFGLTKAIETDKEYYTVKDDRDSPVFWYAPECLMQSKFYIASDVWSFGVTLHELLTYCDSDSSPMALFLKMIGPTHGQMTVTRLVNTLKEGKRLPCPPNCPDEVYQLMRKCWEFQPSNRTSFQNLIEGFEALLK

JNK2α2(h) = molecular target: T7, JNK2α2(h) (Homo sapiens, UniProt P45984)
T7 construct: purchased Eurofins (KinaseProfiler)
T7 sequence (P45984 whole entry): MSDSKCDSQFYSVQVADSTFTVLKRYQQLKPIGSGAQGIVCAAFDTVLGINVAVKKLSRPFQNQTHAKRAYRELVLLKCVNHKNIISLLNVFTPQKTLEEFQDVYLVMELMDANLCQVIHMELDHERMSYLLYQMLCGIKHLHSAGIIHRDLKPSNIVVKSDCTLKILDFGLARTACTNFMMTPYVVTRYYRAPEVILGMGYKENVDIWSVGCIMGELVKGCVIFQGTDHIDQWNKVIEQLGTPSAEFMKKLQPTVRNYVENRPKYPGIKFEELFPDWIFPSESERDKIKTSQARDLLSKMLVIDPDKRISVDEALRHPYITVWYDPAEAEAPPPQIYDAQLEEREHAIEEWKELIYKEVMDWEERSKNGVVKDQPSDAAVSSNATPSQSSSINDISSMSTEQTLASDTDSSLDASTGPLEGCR

MARK1(h) = molecular target: T8, MARK1(h) (Homo sapiens, UniProt Q9P0L2)
T8 construct: purchased Eurofins (KinaseProfiler)

MLCK(h) = molecular target: T9, MLCK(h) (Homo sapiens, UniProt Q15746)
T9 construct: purchased Eurofins (KinaseProfiler)

PAK4(h) = molecular target: T10, PAK4(h) (Homo sapiens, UniProt O96013)
T10 construct: purchased Eurofins (KinaseProfiler)

[1] = molecular target: T11, PI3 Kinase (p110α(H1047R)/p85α)(h) (Homo sapiens, UniProt P42336, H1047R)
T11 construct: purchased Eurofins (KinaseProfiler)

PI3KC2α(h) = molecular target: T12, PI3KC2α(h) (Homo sapiens, UniProt O00443)
T12 construct: purchased Eurofins (KinaseProfiler)
T12 sequence (O00443 whole entry): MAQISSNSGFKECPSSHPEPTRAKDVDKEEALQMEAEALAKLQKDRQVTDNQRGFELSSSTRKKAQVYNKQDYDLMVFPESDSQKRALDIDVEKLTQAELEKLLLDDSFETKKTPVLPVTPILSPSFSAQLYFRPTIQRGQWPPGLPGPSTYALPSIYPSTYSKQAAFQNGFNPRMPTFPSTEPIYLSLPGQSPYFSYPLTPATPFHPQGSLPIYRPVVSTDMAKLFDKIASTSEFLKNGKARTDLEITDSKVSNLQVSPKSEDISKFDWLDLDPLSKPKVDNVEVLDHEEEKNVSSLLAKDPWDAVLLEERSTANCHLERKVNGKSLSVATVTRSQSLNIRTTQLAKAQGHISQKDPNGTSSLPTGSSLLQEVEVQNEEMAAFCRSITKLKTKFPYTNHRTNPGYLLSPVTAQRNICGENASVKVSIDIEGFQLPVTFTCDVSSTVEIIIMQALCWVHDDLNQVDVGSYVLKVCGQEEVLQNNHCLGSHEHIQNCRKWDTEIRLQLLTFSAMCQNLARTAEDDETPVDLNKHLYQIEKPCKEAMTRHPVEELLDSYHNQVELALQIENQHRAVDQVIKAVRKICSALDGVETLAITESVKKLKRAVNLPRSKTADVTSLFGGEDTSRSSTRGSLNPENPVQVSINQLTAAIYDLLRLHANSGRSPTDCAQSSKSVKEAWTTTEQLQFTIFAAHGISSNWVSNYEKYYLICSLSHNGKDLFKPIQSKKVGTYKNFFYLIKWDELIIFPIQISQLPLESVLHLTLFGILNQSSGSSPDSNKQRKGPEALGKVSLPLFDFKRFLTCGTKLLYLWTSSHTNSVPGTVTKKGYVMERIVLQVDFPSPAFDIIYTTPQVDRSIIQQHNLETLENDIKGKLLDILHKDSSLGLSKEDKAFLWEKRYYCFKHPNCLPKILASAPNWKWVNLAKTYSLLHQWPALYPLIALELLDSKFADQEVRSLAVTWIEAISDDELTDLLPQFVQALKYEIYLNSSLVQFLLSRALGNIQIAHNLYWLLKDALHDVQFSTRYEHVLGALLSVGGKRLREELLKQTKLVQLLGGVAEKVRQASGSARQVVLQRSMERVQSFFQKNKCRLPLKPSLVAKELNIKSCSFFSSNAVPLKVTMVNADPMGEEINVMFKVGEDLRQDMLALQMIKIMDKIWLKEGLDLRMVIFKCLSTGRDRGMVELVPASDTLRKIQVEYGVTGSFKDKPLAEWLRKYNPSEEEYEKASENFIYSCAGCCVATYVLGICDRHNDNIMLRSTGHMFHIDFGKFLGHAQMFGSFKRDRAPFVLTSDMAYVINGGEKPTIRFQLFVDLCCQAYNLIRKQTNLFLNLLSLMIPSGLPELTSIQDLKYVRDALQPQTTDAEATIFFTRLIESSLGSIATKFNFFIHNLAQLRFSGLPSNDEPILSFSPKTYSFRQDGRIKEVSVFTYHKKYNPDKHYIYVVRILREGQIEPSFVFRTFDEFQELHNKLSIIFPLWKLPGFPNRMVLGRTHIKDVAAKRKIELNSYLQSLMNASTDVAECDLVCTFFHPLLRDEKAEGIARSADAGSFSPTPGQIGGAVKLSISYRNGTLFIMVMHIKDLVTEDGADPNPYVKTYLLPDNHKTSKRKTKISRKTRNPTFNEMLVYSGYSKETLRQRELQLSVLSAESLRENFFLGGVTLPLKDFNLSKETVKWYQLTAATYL

PKBβ(h) = molecular target: T13, PKBβ(h) (Homo sapiens, UniProt P31751)
T13 construct: purchased Eurofins (KinaseProfiler)

PKCε(h) = molecular target: T14, PKCε(h) (Homo sapiens, UniProt Q02156)
T14 construct: purchased Eurofins (KinaseProfiler)
T14 sequence (Q02156 1-737): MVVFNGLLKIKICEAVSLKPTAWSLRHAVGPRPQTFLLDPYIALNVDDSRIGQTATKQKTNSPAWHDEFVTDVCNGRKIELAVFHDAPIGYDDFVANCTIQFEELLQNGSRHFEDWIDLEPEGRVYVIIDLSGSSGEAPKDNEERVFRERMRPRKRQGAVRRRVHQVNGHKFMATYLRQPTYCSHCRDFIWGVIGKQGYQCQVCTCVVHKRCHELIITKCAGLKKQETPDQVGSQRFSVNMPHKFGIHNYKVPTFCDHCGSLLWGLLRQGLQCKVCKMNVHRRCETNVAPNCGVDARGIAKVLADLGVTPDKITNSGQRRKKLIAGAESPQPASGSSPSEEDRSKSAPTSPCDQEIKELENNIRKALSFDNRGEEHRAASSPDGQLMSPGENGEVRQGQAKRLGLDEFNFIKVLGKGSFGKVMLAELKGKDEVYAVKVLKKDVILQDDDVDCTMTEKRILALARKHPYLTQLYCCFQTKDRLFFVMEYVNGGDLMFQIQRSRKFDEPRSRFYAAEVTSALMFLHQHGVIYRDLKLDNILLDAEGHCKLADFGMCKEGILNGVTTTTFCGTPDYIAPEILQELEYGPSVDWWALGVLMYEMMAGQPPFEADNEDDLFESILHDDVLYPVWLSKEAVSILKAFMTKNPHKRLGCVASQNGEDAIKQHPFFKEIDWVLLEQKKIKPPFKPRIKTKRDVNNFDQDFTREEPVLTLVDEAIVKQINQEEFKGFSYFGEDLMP

PRK1(h) = molecular target: T15, PRK1(h) (Homo sapiens, UniProt Q16512)
T15 construct: purchased Eurofins (KinaseProfiler)

T2 sequence (Q9HAZ1 whole entry): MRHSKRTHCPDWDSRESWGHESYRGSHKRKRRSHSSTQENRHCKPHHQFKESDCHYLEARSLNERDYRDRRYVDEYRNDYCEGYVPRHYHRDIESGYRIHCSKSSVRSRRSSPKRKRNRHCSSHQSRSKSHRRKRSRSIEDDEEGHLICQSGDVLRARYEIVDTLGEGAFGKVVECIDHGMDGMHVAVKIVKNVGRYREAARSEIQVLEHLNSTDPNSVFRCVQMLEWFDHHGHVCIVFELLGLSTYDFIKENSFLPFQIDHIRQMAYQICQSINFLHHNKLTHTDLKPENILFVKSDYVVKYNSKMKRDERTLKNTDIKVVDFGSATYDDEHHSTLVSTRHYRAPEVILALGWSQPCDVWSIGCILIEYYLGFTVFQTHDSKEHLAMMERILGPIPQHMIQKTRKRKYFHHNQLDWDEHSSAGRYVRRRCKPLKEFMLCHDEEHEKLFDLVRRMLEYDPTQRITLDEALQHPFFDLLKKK

In the case of `COc1cc(OC)c(Cl)c(-c2ccc3c(NC(=O)c4ccc(N5CCNC(C)(C)C5)cc4)n[nH]c3n2)c1Cl` [3D185], the inhibition at 0.01 µM (ACTR2(h); 10 nM) is reported as 0%, the inhibition at 0.1 µM (ACTR2(h); 100 nM) is reported as -1% and the inhibition at 1 µM (ACTR2(h); 1000 nM) is reported as 1%. For the same molecule, the inhibition at 0.01 µM (CLK4(h); 10 nM) was 5%, the inhibition at 0.1 µM (CLK4(h); 100 nM) was 19% and the inhibition at 1 µM (CLK4(h); 1000 nM) was 27%. It also gave an inhibition at 0.01 µM (CaMKIδ(h); 10 nM) of 0%, an inhibition at 0.1 µM (CaMKIδ(h); 100 nM) of 23% and an inhibition at 1 µM (CaMKIδ(h); 1000 nM) of 76%. It also gave an inhibition at 0.01 µM (DCAMKL3(h); 10 nM) of 5%, an inhibition at 0.1 µM (DCAMKL3(h); 100 nM) of 7% and an inhibition at 1 µM (DCAMKL3(h); 1000 nM) of 16%. For the same molecule, the inhibition at 0.01 µM (EGFR(h); 10 nM) was -12%, the inhibition at 0.1 µM (EGFR(h); 100 nM) was -16% and the inhibition at 1 µM (EGFR(h); 1000 nM) was 0%. The inhibition at 0.01 µM (JAK1(h); 10 nM) was 13%, the inhibition at 0.1 µM (JAK1(h); 100 nM) was 15% and the inhibition at 1 µM (JAK1(h); 1000 nM) was 20%. The inhibition at 0.01 µM (JNK2α2(h); 10 nM) was 3%, the inhibition at 0.1 µM (JNK2α2(h); 100 nM) was 4% and the inhibition at 1 µM (JNK2α2(h); 1000 nM) was 1%. For the same molecule, the inhibition at 0.01 µM (MARK1(h); 10 nM) was -11%, the inhibition at 0.1 µM (MARK1(h); 100 nM) was -13% and the inhibition at 1 µM (MARK1(h); 1000 nM) was -25%. It also gave an inhibition at 0.01 µM (MLCK(h); 10 nM) of 5%, an inhibition at 0.1 µM (MLCK(h); 100 nM) of -1% and an inhibition at 1 µM (MLCK(h); 1000 nM) of 11%. It also gave an inhibition at 0.01 µM (PAK4(h); 10 nM) of -8%, an inhibition at 0.1 µM (PAK4(h); 100 nM) of 0% and an inhibition at 1 µM (PAK4(h); 1000 nM) of -2%. The inhibition at 0.01 µM ([1]; 10 nM) was 1%, the inhibition at 0.1 µM ([1]; 100 nM) was 3% and the inhibition at 1 µM ([1]; 1000 nM) was -5%. For the same molecule, the inhibition at 0.01 µM (PI3KC2α(h); 10 nM) was -5%, the inhibition at 0.1 µM (PI3KC2α(h); 100 nM) was 1% and the inhibition at 1 µM (PI3KC2α(h); 1000 nM) was 1%. It also gave an inhibition at 0.01 µM (PKBβ(h); 10 nM) of 15%, an inhibition at 0.1 µM (PKBβ(h); 100 nM) of 29% and an inhibition at 1 µM (PKBβ(h); 1000 nM) of 30%. For the same molecule, the inhibition at 0.01 µM (PKCε(h); 10 nM) was -4%, the inhibition at 0.1 µM (PKCε(h); 100 nM) was -10% and the inhibition at 1 µM (PKCε(h); 1000 nM) was -6%. It also gave an inhibition at 0.01 µM (PRK1(h); 10 nM) of 2%, an inhibition at 0.1 µM (PRK1(h); 100 nM) of 1% and an inhibition at 1 µM (PRK1(h); 1000 nM) of 2%.
